Measured values as given in PMC8236452, “Pharmacokinetics and safety of rucaparib in patients with advanced solid tumors and hepatic impairment” (Cancer Chemotherapy and Pharmacology, 2021).
Read-outs that look alike come from different tables or passages of the source.

Legend:
[1] = parameters: method as in PMID 28222073; settings: immediate-release tablet; cited from earlier work
[2] = Urine pharmacokinetics (Ae0–24, CLR) after a single oral dose of rucaparib 600 mg in patients with advanced solid tumors; format: in vivo, human; settings: urine, single oral rucaparib 600 mg; for CL renal: human, po, 600 mg
Description: Stable deuterium-labeled analytes were used as internal standards.
PK parameters were estimated from the concentration–time profiles.

[3] = Plasma pharmacokinetics after a single oral dose of rucaparib 600 mg in patients with advanced solid tumors, by hepatic function group; settings: for AUC(0-inf) / AUC(0-t) / Cmax: human, plasma, 600 mg; for AUC(0-t): AUC0–last
Description: In Part 1, patients received a single oral dose of rucaparib 600 mg on day 1; PK samples were collected and safety monitored through day 7.
Sample collection, processing, and shipping were conducted according to standardized protocols shared across study sites. Plasma samples were collected for PK analysis at the predose assessment and at 1, 2, 3, 4, 8, 12, 24, 48, 72, 96, 120, and 144 h postdose. A predose urine sample was collected less than 12 h prior to study drug administration. Total urine was collected 0–12 h and 12–24 h postdose. Total (bound and unbound) concentrations of rucaparib and its metabolite M324 in plasma and urine samples were determined by Q Squared Solutions BioSciences (Ithaca, NY, USA) using validated liquid chromatography mass spectrometry/mass spectrometry methods. Stable deuterium-labeled analytes were used as internal standards. The assay calibration ranges for plasma samples were 5–10,000 ng/mL for rucaparib and 1–1000 ng/mL for M324 with lower limits of quantification (LLOQ) of 5.00 and 1.00 ng/mL, respectively. For urine samples, the calibration range was 500–50,000 ng/mL for both rucaparib and M324, with a LLOQ of 500 ng/mL for both analytes. The precision was within 9.3% CV, and the accuracy was within ± 6.2%.
PK parameters were estimated from the concentration–time profiles. Actual elapsed time after dosing was used to estimate plasma PK parameters based on noncompartmental methods using Phoenix® WinNonlin® version 8.1.0 (Certara USA, Inc., Princeton, NJ, USA). […] Exploratory PK parameters for M324 calculated based on plasma and urine concentration-time data were Cmax, AUC0–last, AUC0–inf, t1/2, tmax, Ae0–24, and CLR, as data allowed.
PK parameters were calculated by noncompartmental analysis, analyzed using descriptive statistics, and presented by hepatic functional status. Analysis of variance (ANOVA) was used to compare PK parameters (e.g., Cmax, AUC0–last, and AUC0–inf) between the normal hepatic function group and the moderate hepatic impairment group per NCI-ODWG criteria. PK values were log-transformed before analysis. Baseline covariates (e.g., creatinine clearance [CLcr], sex, age, BMI, and ECOG PS) were tested for any significant effect (P value < 0.05). Geometric least-squares means were used to calculate the ratios of the PK parameters in the hepatic impairment group to those in the control group, along with 90% confidence intervals (CIs). The Wilcoxon rank-sum test was used to compare tmax values between the two groups, and estimates of the median differences were determined, along with 90% CIs. In addition, the relationships between log-transformed PK parameters (AUC0–last, AUC0–inf, Cmax) for rucaparib and M324 and hepatic function parameters (bilirubin and aspartate aminotransferase [AST]) relevant to the classification of hepatic impairment according to NCI-ODWG were explored by a linear regression approach.

[4] = Child–Pugh mild hepatic impairment
[5] = Child–Pugh moderate hepatic impairment
[6] = Child–Pugh severe hepatic impairment
[7] = NCI-ODWG moderate hepatic impairment
[8] = NCI-ODWG normal hepatic function
[9] = ANOVA, NCI-ODWG moderate hepatic impairment vs normal hepatic function
[10] = Child–Pugh mild hepatic impairment, single oral rucaparib 600 mg
[11] = Child–Pugh moderate hepatic impairment, single oral rucaparib 600 mg
[12] = Child–Pugh severe hepatic impairment, single oral rucaparib 600 mg
[13] = NCI-ODWG moderate hepatic impairment, single oral rucaparib 600 mg
[14] = NCI-ODWG normal hepatic function, single oral rucaparib 600 mg
[15] = oral, Geometric LS means, ANOVA, NCI-ODWG moderate hepatic impairment (n = 8)
[16] = oral, Geometric LS means, ANOVA, NCI-ODWG normal hepatic function (n = 8)

SMILES: CNCc1ccc(-c2[nH]c3cc(F)cc4c3c2CCNC4=O)cc1 [rucaparib]
- absolute bioavailability, range [1]: 30–45%
- mean absolute bioavailability [1]: 36%
- CL renal ([2]; Child–Pugh mild hepatic impairment, read-out: CLR, GM): 55.2 mL/min
- CL renal ([2]; Child–Pugh mild hepatic impairment, read-out: CLR, Mean (SD)): 56.7 mL/min
- CL renal ([2]; Child–Pugh mild hepatic impairment, read-out: CLR, Median (min–max)): 59.5 mL/min
- CL renal ([2]; Child–Pugh moderate hepatic impairment, read-out: CLR, GM): 48.8 mL/min
- CL renal ([2]; Child–Pugh moderate hepatic impairment, read-out: CLR, Mean (SD)): 52.3 mL/min
- CL renal ([2]; Child–Pugh moderate hepatic impairment, read-out: CLR, Median (min–max)): 53.7 mL/min
- CL renal ([2]; Child–Pugh severe hepatic impairment, read-out: CLR, GM): 16 mL/min
- CL renal ([2]; Child–Pugh severe hepatic impairment, read-out: CLR, Mean (SD)): 20.1 mL/min
- CL renal ([2]; Child–Pugh severe hepatic impairment, read-out: CLR, Median (min–max)): 20.1 mL/min
- CL renal ([2]; NCI-ODWG moderate hepatic impairment, read-out: CLR, GM): 36.9 mL/min
- CL renal ([2]; NCI-ODWG moderate hepatic impairment, read-out: CLR, Mean (SD)): 46.2 mL/min
- CL renal ([2]; NCI-ODWG moderate hepatic impairment, read-out: CLR, Median (min–max)): 41.1 mL/min
- CL renal ([2]; NCI-ODWG normal hepatic function, read-out: CLR, GM): 52.5 mL/min
- CL renal ([2]; NCI-ODWG normal hepatic function, read-out: CLR, Mean (SD)): 53.5 mL/min
- CL renal ([2]; NCI-ODWG normal hepatic function, read-out: CLR, Median (min–max)): 56.1 mL/min
- Ae0–24, GM [2, 4]: 17.6 mg
- Ae0–24, Mean (SD) [2, 4]: 20.7 (11.9) mg
- Ae0–24, Median (min–max) [2, 4]: 21.4 (7.69–40.6) mg
- Ae0–24, GM [2, 5]: 28.2 mg
- Ae0–24, Mean (SD) [2, 5]: 29.8 (9.93) mg
- Ae0–24, Median (min–max) [2, 5]: 33.2 (16.7–41.5) mg
- Ae0–24, GM [2, 6]: 8.49 mg
- Ae0–24, Mean (SD) [2, 6]: 8.89 (3.72) mg
- Ae0–24, Median (min–max) [2, 6]: 8.89 (6.26–11.5) mg
- Ae0–24, GM [2, 7]: 16.0 mg
- Ae0–24, Mean (SD) [2, 7]: 19.8 (13.7) mg
- Ae0–24, Median (min–max) [2, 7]: 16.7 (6.26–41.5) mg
- Ae0–24, GM [2, 8]: 22.8 mg
- Ae0–24, Mean (SD) [2, 8]: 25.4 (10.9) mg
- Ae0–24, Median (min–max) [2, 8]: 27.0 (7.69–40.6) mg
- AUC0-inf, Geometric mean ratio Moderate/normal (90% CI) [3, 9]: 1.446
- AUC0–last, Geometric mean ratio Moderate/normal (90% CI) [3, 9]: 1.335 (0.617–2.891)
- Cmax, Geometric mean ratio Moderate/normal (90% CI) [3, 9]: 0.907 (0.605–1.362)
- AUC0-inf, Geometric mean ratio Moderate/normal (90% CI) ([3]; ANOVA, NCI-ODWG moderate hepatic impairment vs normal hepatic function, listed as Rucaparib): 1.446 (0.668–3.131)
- CL/F, GM [3, 10]: 64.0 L/h
- CL/F, Mean (SD) [3, 10]: 82.2 (59.5) L/h
- CL/F, Median (min–max) [3, 10]: 68.3 (26.4–180) L/h
- CL/F, GM [3, 11]: 23.7 L/h
- CL/F, Mean (SD) [3, 11]: 25.1 (8.62) L/h
- CL/F, Median (min–max) [3, 11]: 28.4 (14.6–34.6) L/h
- CL/F, GM [3, 12]: 22.2 L/h
- CL/F, Mean (SD) [3, 12]: 39.6 (46.4) L/h
- CL/F, Median (min–max) [3, 12]: 39.6 (6.79–72.4) L/h
- CL/F, GM [3, 13]: 30.2 L/h
- CL/F, Mean (SD) [3, 13]: 48.1 (56.8) L/h
- CL/F, Median (min–max) [3, 13]: 29.1 (6.79–180) L/h
- CL/F, GM [3, 14]: 43.7 L/h
- CL/F, Mean (SD) [3, 14]: 55.7 (42.7) L/h
- CL/F, Median (min–max) [3, 14]: 33.1 (15.9–133) L/h
- AUC(0-inf) ([3]; oral, AUC0-inf, Geometric LS means, ANOVA, NCI-ODWG moderate hepatic impairment (n = 8)): 19.9 µg·h/mL
- AUC(0-inf) ([3]; oral, AUC0-inf, Geometric LS means, ANOVA, NCI-ODWG normal hepatic function (n = 8)): 13.7 µg·h/mL
- AUC(0-t) [3, 15]: 17.5 µg·h/mL
- AUC(0-t) [3, 16]: 13.1 µg·h/mL
- Cmax [3, 15]: 0.583 µg/mL
- Cmax [3, 16]: 0.642 µg/mL
- AUC(0-inf) ([3]; po, AUC0–inf, GM, Child–Pugh mild hepatic impairment, single oral rucaparib 600 mg): 9.37 µg·h/mL
- AUC(0-inf) ([3]; po, AUC0–inf, GM, Child–Pugh moderate hepatic impairment, single oral rucaparib 600 mg): 25.3 µg·h/mL
- AUC(0-inf) ([3]; po, AUC0–inf, GM, Child–Pugh severe hepatic impairment, single oral rucaparib 600 mg): 27.1 µg·h/mL
- AUC(0-inf) ([3]; po, AUC0–inf, GM, NCI-ODWG moderate hepatic impairment, single oral rucaparib 600 mg): 19.9 µg·h/mL
- AUC(0-inf) ([3]; po, AUC0–inf, GM, NCI-ODWG normal hepatic function, single oral rucaparib 600 mg): 13.7 µg·h/mL
- AUC(0-inf) ([3]; po, AUC0–inf, Mean (SD), Child–Pugh mild hepatic impairment, single oral rucaparib 600 mg): 11.9 µg·h/mL
- AUC(0-inf) ([3]; po, AUC0–inf, Mean (SD), Child–Pugh moderate hepatic impairment, single oral rucaparib 600 mg): 26.8 µg·h/mL
- AUC(0-inf) ([3]; po, AUC0–inf, Mean (SD), Child–Pugh severe hepatic impairment, single oral rucaparib 600 mg): 48.3 µg·h/mL
- AUC(0-inf) ([3]; po, AUC0–inf, Mean (SD), NCI-ODWG moderate hepatic impairment, single oral rucaparib 600 mg): 29 µg·h/mL
- AUC(0-inf) ([3]; po, AUC0–inf, Mean (SD), NCI-ODWG normal hepatic function, single oral rucaparib 600 mg): 17 µg·h/mL
- AUC(0-inf) ([3]; po, AUC0–inf, Median (min–max), Child–Pugh mild hepatic impairment, single oral rucaparib 600 mg): 8.78 µg·h/mL
- AUC(0-inf) ([3]; po, AUC0–inf, Median (min–max), Child–Pugh moderate hepatic impairment, single oral rucaparib 600 mg): 21.1 µg·h/mL
- AUC(0-inf) ([3]; po, AUC0–inf, Median (min–max), Child–Pugh severe hepatic impairment, single oral rucaparib 600 mg): 48.3 µg·h/mL
- AUC(0-inf) ([3]; po, AUC0–inf, Median (min–max), NCI-ODWG moderate hepatic impairment, single oral rucaparib 600 mg): 20.6 µg·h/mL
- AUC(0-inf) ([3]; po, AUC0–inf, Median (min–max), NCI-ODWG normal hepatic function, single oral rucaparib 600 mg): 18.1 µg·h/mL
- AUC(0-t) ([3]; po, GM, Child–Pugh mild hepatic impairment, single oral rucaparib 600 mg): 8.91 µg·h/mL
- AUC(0-t) ([3]; po, GM, Child–Pugh moderate hepatic impairment, single oral rucaparib 600 mg): 22.5 µg·h/mL
- AUC(0-t) ([3]; po, GM, Child–Pugh severe hepatic impairment, single oral rucaparib 600 mg): 23.9 µg·h/mL
- AUC(0-t) ([3]; po, GM, NCI-ODWG moderate hepatic impairment, single oral rucaparib 600 mg): 17.5 µg·h/mL
